The results in this text go back to ChEMBL document CHEMBL2074112 (Br J Cancer, 1996).

The data set addresses ATP-dependent translocase ABCB1 (Homo sapiens, UniProt P08183). As to the kind of experiment: TP_TRANSPORTER: increase in Rhodamine 123 intracellular accumulation (R123: 1.66 uM, Staurosporine: 80 uM) in MCF7/Adr cells. Type of data set: functional, cell-based. The settings on record: nci/adr-res.

ATP-dependent translocase ABCB1, sequence (P08183 whole entry): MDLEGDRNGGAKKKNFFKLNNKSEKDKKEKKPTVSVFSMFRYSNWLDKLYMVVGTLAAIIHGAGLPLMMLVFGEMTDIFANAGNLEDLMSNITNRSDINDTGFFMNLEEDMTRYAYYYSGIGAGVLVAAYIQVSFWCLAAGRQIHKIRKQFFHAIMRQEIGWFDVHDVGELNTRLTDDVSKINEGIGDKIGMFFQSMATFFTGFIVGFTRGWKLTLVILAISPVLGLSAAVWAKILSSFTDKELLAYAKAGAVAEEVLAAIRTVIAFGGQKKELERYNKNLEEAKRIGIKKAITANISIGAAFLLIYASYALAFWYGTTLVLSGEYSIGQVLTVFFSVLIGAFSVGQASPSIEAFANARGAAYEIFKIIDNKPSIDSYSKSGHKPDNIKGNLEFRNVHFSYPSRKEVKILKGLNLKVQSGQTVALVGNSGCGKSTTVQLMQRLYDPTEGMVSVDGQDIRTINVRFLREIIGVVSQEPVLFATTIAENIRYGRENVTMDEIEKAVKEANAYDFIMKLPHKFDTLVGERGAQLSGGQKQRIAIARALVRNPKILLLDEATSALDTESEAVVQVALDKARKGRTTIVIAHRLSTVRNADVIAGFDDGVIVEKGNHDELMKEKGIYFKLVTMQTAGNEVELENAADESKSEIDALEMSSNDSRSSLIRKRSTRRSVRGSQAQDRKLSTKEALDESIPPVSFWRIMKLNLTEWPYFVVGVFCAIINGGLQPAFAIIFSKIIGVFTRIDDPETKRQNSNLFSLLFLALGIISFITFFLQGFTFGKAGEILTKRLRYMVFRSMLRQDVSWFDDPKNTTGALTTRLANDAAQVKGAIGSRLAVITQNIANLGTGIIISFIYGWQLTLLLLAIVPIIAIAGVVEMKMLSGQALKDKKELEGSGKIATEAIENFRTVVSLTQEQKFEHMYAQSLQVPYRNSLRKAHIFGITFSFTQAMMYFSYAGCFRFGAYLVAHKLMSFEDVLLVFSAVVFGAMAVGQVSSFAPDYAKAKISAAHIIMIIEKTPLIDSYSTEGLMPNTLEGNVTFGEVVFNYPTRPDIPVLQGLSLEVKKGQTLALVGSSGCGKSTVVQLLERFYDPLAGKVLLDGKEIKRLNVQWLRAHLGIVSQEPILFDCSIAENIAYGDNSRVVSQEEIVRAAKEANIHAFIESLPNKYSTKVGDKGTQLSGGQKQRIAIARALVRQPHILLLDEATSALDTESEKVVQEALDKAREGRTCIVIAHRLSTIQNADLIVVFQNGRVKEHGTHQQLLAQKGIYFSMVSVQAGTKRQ

Compound `CN[C@@H]1C[C@H]2O[C@@](C)([C@@H]1OC)n1c3ccccc3c3c4c(c5c6ccccc6n2c5c31)C(=O)NC4` [STAUROSPORINE] displayed an Activity of 140%.
